Ki data for 29 molecules are collected here from ChEMBL document CHEMBL1133782, “Solid-phase synthesis of cyclic alkoxyketones, inhibitors of the cysteine protease cathepsin K” (Bioorg Med Chem Lett, 2001).

The assay deals with T1, Cathepsin K (Homo sapiens, UniProt P43235).
T1 sequence (P43235 whole entry): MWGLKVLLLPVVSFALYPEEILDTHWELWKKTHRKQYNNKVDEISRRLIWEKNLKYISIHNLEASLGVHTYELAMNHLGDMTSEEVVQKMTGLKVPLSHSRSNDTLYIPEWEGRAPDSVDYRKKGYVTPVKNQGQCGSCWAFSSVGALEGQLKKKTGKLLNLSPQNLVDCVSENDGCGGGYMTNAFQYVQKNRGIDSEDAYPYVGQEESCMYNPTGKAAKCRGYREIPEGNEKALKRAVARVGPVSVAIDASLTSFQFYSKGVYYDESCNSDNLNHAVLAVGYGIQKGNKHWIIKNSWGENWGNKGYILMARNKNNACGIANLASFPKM
In words: Inhibitory activity against human cysteine protease, cathepsin K.
As a reminder, the Ki is a measure of affinity in units of concentration, obtained from inhibition or displacement. Molecule `CC(C)C[C@H](NC(=O)c1ccc(F)c(F)c1)C(=O)NC1COCC1=O` (some centres undefined) gave an inhibition constant (Ki) of 820 nM.
Consider `CC(C)C[C@H](NC(=O)c1cc2ccccc2s1)C(=O)NC1COCC1=O` (some centres undefined), for which the inhibition constant (Ki) was 11 nM.
As for `CC(C)[C@H](NC(=O)c1cc2ccccc2s1)C(=O)NC1COCC1=O` (some centres undefined), the figure is over 10000 nM; as for `CC(C)C[C@H](NC(=O)c1cc2ccccc2o1)C(=O)NC1COCC1=O` (some centres undefined), 53 nM; as for `O=C(N[C@@H](Cn1ccnc1)C(=O)NC1COCC1=O)c1cc2ccccc2s1` (some centres undefined), over 10000 nM.
`COCC(=O)[C@H](C)NC(=O)[C@H](CC(C)C)NC(=O)OCc1ccccc1` gave a Ki of 60 nM.
As for `O=C(CNC(=O)c1cc2ccccc2s1)NC1COCC1=O` (centres undefined), the figure is over 10000 nM.
As for `NC(=O)CC[C@H](NC(=O)c1cc2ccccc2s1)C(=O)NC1COCC1=O` (some centres undefined), the figure is over 10000 nM; as for `NCCCC[C@H](NC(=O)c1cc2ccccc2s1)C(=O)NC1COCC1=O` (some centres undefined), over 10000 nM.
As for `O=C(O)CC[C@H](NC(=O)c1cc2ccccc2s1)C(=O)NC1COCC1=O` (some centres undefined), the figure is over 10000 nM; as for `CC(C)C[C@H](NC(=O)c1ccccc1)C(=O)NC1COCC1=O` (some centres undefined), 180 nM; as for `CC(C)C[C@H](NC(=O)c1ccc(-c2ccccc2)cc1)C(=O)NC1COCC1=O` (some centres undefined), 19 nM.
With `CC(C)C[C@H](NC(=O)c1ccc2ccccc2c1)C(=O)NC1COCC1=O` (some centres undefined), the affinity corresponds to a Ki of 61 nM.
The figure for `CC(C)C[C@H](NC(=O)c1ccccn1)C(=O)NC1COCC1=O` (some centres undefined) is 420 nM; for `CC(O)[C@H](NC(=O)c1cc2ccccc2s1)C(=O)NC1COCC1=O` (some centres undefined) it is over 10000 nM.
As for `CC(C)C[C@H](NC(=O)c1ccc(S(C)(=O)=O)cc1)C(=O)NC1COCC1=O` (some centres undefined), the figure is 710 nM.
As for `CC(C)C[C@H](NC(=O)c1ccc(C(C)C)cc1)C(=O)NC1COCC1=O` (some centres undefined), the figure is 64 nM.
On to `O=C(N[C@@H](Cc1ccccc1)C(=O)NC1COCC1=O)c1cc2ccccc2s1` (some centres undefined), for which the inhibition constant Ki was over 10000 nM.
As for `CC(C)C[C@H](NC(=O)c1ccc(C(C)(C)C)cc1)C(=O)NC1COCC1=O` (some centres undefined), the figure is 15 nM; as for `CC(=O)N[C@@H](CC(C)C)C(=O)NC1COCC1=O` (some centres undefined), over 1000 nM; as for `CC(C)C[C@H](NC(=O)c1cccs1)C(=O)NC1COCC1=O` (some centres undefined), 640 nM.
As for `O=C(N[C@@H](CC1CCCCC1)C(=O)NC1COCC1=O)c1cc2ccccc2s1` (some centres undefined), the figure is over 10000 nM; as for `C[C@H](NC(=O)c1cc2ccccc2s1)C(=O)NC1COCC1=O` (some centres undefined), over 10000 nM; as for `CC(C)C[C@H](NC(=O)C1CCCCC1)C(=O)NC1COCC1=O` (some centres undefined), over 1000 nM.
As for `CC(C)C[C@H](NC(=O)OCc1ccccc1)C(=O)NC1COCC1=O` (some centres undefined), the figure is 140 nM.
For `CC(C)C[C@H](NC(=O)c1ccc2cc[nH]c2c1)C(=O)NC1COCC1=O` (some centres undefined), affinity was put at a Ki of 38 nM.
As for `CCC[C@H](NC(=O)c1cc2ccccc2s1)C(=O)NC1COCC1=O` (some centres undefined), the figure is 190 nM.
As for `CC(C)C[C@H](NC(=O)c1cccc([N+](=O)[O-])c1)C(=O)NC1COCC1=O` (some centres undefined), the figure is over 1000 nM; as for `CC(C)C[C@H](NC(=O)c1ccc2ccccc2n1)C(=O)NC1COCC1=O` (some centres undefined), 44 nM.
